Assay results from US7713969B2, “Compositions and methods for treatment of cancer” (ArQule, Inc., priority 2005, dated 2010).
Where two headings read alike, the source gives them in different places.

Experiments:
[1] = tested on: MDA-MB-231 human breast cancer xenograft; experiment: MDA-MB-231 xenograft, intraperitoneal 160 mg/kg (Example 81); type: in vivo, mice; conditions: 160 mg/kg intraperitoneally, q3d×10, lipiodol vehicle
Method: Athymic female nude mice (CRL:NU/NU-nuBR) were injected subcutaneously in the flank with MDA-MB-231 human breast cancer cells (8×10^6 cells/mouse). Prior to injection, MDA-MB-231 cells were cultured in DMEM (Invitrogen #11965-092) supplemented with 10% (v/v) heat inactivated fetal bovine serum (FBS), 1% Hepes buffer solution (Invitrogen #15630-080) and 1% Penicillin/Streptomycin (Invitrogen #15140-122) at 37° C. in 5% CO2. Tumors were allowed to grow to approximately 50 mm^3 in size. Animals were randomized into three groups of five animals per group. At day ten post injection, mice with established tumors were treated intraperitoneally with (±)-cis-3-(5,6-dihydro-4H-pyrrolo[3,2,1-ij]quinolin-1yl)-4(1H-indol-3-yl) pyrrolidine-2,5-dione (160 mg/kg), (±)-trans-3-(5,6-dihydro-4H-pyrrolo[3,2,1-ij]quinolin-1-yl)-4(1H-indol-3-yl)pyrrolidine-2,5-dione (160 mg/kg) administered in iodinated poppy seed oil (lipiodol) as the vehicle at 10 mg/ml, or vehicle control. Drug or vehicle was administered every three days for a total of ten doses (q3d×10). Tumor size was evaluated periodically during the study. For each subject, tumor volume was calculated using the formula (L×W^2)/2 where L and W were the length and width of the tumor, respectively. The arithmetic mean tumor volume was calculated for each treatment group+/−standard error of the mean (SEM). […]

[2] = target: T1, c-Met (Homo sapiens, UniProt P08581); experiment: c-Met phosphorylation, Western blot (Example 80); type: cell-based; set-up: whole cell extracts were prepared; endogenous in cells; host or cells: MDA-MB-231; conditions: MDA-MB-231 cells, serum-deprived 16 hours, 100 ng/ml HGF/SF 10 minutes
Method: MDA-MB-231 cells were serum-deprived overnight (16 hours) in the absence or in the presence of the indicated concentrations of the separate enantiomers (+)-trans-3-(5,6-dihydro-4H-pyrrolo[3,2,1-ij]quinolin-1-yl)-4(1H-indol-3-yl)pyrrolidine-2,5-dione and (−)-trans-3-(5,6-dihydro-4H-pyrrolo[3,2,1-ij]quinolin-1-yl)-4(1H-indol-3-yl)pyrrolidine-2,5-dione. Cells were treated with 100 ng/ml recombinant human Hepatocyte Growth Factor/Scatter Factor (HGF/SF) (R&D Systems #294-HG) for 10 minutes. Whole cell extracts were prepared in lysis buffer (20 mM Trwas-HC1 pH 7.5, 150 mM NaCl, 1 mM Na2EDTA, 1 mM EGTA, 1% Triton X-100, 2.5 mM sodium pyrophosphate, 1 mM beta-glycerophosphate, 1 mM Na3VO4, 1 μg/ml leupeptin, 1 mM phenylmethylsulfonyl fluoride) and sonicated. Protein concentration was measured by Bradford assay using the BioRad reagent (BioRad, Hercules, Calif.), according to the manufacturer's directions. Samples (50 μg of protein) were resolved by 8% SDS-PAGE under reducing conditions, and transferred onto a PVDF membrane (BioRad). […] Proteins were detected by incubation overnight at 4° C. in TBS-T with 5% milk and either a polyclonal antibody against phosphorylated c-Met (#3121), phosphorylated Erk1/2 (#9101), total Erk1/2 protein (#9102) (Cell Signaling Technology); or a monoclonal antibody against […] (A-5441) (Sigma), which was used as a control for total protein loading. […]

[3] = target: T1, c-Met; experiment: c-Met inhibition, phospho-c-Met blot with densitometry (Example 83); type: cell-based; set-up: whole cell extracts were prepared; endogenous in cells; host or cells: MCF-7, MDA-MB-231, DLD1, HT29, PACA2, PANC-1, NCI-H441; conditions: 24 hours treatment, read-out: (−)-trans IC50 c-Met Inhibition
Method: To determine c-met inhibition, exponentially growing MCF-7 and MDA-MB-231 human breast cancer cells, DLD1 and HT29 human colon cancer cells, PACA2 and PANC-1 human pancreatic cancer cells and NCI-H441 human non-small cell lung cancer cells (H441) were serum starved in 0.5% FBS and treated with increasing amounts of (−)-trans-3-(5,6-dihydro-4H-pyrrolo [3,2,1-ij]quinolin-1-yl)-4(1H-indol-3-yl)pyrrolidine-2,5-dione for 24 hours as indicated. Cells were then left unstimulated or stimulated with 100 ng/mL HGF for 10 minutes and whole cell extracts were prepared. Whole cell lysates (50 μg) were resolved by SDS-PAGE, transferred onto a PVDF membrane, and an enhanced chemiluminescence assay system (ECL) was used to determine the phosphorylation status of c-Met. A polyclonal antibody against phospho (Y1349) c-Met (phospho-c-Met) was obtained from Biosource International and a monoclonal antibody against β-actin was purchased from Invitrogen. Percent inhibition was determined by densitometry using the Scion Image For colony formation assays (CFA), exponentially growing cells were seeded at 2,000 cells per well in 6-well plates and allowed to attach for 24 hours. Increasing concentrations of (−)-trans-3-(5,6-dihydro-4H-pyrrolo[3,2,1-ij]quinolin-1-yl)-4(1H-indol-3-yl)pyrrolidine-2,5-dione (from 0.01 to 30 μM) were then added to the media for another 24 hours. After 24 hours exposure, the drug was removed and fresh media was added for the next 14-21 days, allowing for colony formation. Cells were fixed and stained with GEMSA (Gibco BRL). Colonies of greater than 50 cells were scored as survivors and percentage of cell survival was plotted to determine the IC50. […] The IC50 of (−)-trans-3-(5,6-dihydro-4H-pyrrolo[3,2,1-ij]quinolin-1-yl)-4(1H-indol-3-yl) pyrrolidine-2,5-dione for c-Met expressing solid tumor types is in the 0.1-0.7 μM range following exposure to (−)-trans-3-(5,6-dihydro-4H-pyrrolo[3,2,1-ij]quinolin-1-yl)-4(1H-indol-3-yl)pyrrolidine-2,5-dione for 24 hours, as determined by colony formation assay (CFA).

T1 sequence (P08581 25-1390): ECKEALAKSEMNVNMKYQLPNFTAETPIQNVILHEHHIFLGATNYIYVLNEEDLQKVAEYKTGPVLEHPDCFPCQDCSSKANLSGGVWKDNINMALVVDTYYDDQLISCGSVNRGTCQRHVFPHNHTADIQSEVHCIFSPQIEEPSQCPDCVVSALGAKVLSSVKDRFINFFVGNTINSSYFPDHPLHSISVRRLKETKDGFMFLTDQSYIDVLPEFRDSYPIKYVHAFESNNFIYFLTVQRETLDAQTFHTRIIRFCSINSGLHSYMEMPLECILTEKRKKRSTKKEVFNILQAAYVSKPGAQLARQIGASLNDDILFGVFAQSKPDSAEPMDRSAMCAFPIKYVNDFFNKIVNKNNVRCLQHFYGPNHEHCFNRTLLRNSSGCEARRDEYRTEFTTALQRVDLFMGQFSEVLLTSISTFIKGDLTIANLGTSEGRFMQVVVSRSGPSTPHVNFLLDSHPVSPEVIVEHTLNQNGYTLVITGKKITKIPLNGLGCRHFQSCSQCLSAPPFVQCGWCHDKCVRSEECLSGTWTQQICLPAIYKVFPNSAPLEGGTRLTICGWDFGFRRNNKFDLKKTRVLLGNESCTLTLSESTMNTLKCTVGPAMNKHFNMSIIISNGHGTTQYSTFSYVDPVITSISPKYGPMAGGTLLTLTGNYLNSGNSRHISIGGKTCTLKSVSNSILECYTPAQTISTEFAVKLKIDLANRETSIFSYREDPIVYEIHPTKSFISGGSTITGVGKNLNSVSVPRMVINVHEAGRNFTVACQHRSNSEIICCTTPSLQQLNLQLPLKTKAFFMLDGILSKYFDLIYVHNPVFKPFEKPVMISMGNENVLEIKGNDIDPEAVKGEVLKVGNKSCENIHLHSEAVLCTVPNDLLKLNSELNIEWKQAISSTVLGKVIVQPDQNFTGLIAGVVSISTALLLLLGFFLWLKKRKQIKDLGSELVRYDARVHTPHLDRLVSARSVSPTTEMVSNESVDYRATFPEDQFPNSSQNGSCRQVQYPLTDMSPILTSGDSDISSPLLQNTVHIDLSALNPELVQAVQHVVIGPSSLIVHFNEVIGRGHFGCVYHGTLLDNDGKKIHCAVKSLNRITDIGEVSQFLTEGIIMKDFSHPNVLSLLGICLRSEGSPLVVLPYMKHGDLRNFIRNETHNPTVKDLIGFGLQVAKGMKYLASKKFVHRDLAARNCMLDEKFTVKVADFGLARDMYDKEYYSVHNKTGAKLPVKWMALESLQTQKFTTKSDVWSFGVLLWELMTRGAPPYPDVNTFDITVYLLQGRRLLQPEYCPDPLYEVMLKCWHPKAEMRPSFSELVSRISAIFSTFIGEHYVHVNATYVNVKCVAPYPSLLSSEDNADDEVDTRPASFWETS

Row | SMILES | reduction of normalized mean tumor volume compared to vehicle treated control [1] [%] | concentration that inhibits basal and HGF-induced autophosphorylation of c-Met [2] | IC50 ([3]; DLD-1 cells) [nM] | IC50 ([3]; H441 cells) [nM] | IC50 ([3]; HT-29 cells) [nM] | IC50 ([3]; MCF-7 cells) [nM] | IC50 ([3]; MDA-MB-231 cells) [nM] | IC50 ([3]; PACA2 cells) [nM] | IC50 ([3]; PANC-1 cells) [nM]
1 | O=C1NC(=O)[C@@H](c2cn3c4c(cccc24)CCC3)[C@@H]1c1c[nH]c2ccccc12 (racemic) [(±)-Trans-3-(5,6-dihydro-4H-pyrrolo[3,2,1-ij]quinolin-1-yl)-4(1H-indol-3-yl)pyrrolidine-2,5-dione] | 43.5 | – | – | – | – | – | – | – | –
2 | O=C1NC(=O)C(c2cn3c4c(cccc24)CCC3)C1c1c[nH]c2ccccc12 (single isomer, unassigned; (-)) | – | at least 500 nM | 3000 | 100 | 300 | 100 | 100 | 100 | 500
